Where a SMILES comes first, the peptide text is derived from it. [ ]: non-standard residue; d: D form.
What was measured:
[1] = target: T1, recombinant human ETB R (Homo sapiens, UniProt P24530); experiment: [125I]-ET-1 radioligand binding, CHO-K1 cells expressing recombinant human ETB R (HERBA-B); settings: [125I]-ET-1 (40 pM), 2 hours at 37° C.
T1 construct: expressed in transfected cells; host or cells: CHO-K1 cells (membranes)
T1 sequence (P24530 27-442): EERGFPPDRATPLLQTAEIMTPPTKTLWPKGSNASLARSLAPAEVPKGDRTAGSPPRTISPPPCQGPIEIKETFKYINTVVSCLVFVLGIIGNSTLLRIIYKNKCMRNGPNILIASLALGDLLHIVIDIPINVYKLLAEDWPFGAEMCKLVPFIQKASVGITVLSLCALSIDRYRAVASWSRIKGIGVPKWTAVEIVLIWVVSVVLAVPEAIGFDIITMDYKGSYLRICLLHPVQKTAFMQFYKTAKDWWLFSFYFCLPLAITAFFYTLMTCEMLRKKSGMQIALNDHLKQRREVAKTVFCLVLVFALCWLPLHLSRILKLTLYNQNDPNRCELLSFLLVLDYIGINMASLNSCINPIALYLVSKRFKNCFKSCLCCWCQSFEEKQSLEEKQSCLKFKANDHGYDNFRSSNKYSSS

[2] = target: T2, recombinant human ETA R (Homo sapiens, UniProt P25101); experiment: [125I]-ET-1 radioligand binding, Ltk- cells expressing recombinant human ETA R (HERBA-A); settings: [125I]-ET-1 (40 pM), 2 hours at 37° C.
T2 construct: expressed in transfected cells; host or cells: Ltk- cells (membranes)
T2 sequence (P25101 21-427): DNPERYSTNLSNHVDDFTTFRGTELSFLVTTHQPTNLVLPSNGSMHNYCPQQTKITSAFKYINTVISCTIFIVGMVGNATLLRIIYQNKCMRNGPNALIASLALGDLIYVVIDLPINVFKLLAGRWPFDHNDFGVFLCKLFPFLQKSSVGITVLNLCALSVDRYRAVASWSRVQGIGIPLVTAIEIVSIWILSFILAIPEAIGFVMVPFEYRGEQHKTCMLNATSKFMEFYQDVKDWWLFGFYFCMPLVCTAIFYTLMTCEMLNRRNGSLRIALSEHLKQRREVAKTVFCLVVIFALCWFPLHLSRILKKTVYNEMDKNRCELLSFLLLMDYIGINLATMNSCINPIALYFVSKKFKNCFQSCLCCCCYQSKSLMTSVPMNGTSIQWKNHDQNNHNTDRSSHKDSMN
Description: (§1) The compounds of Formula I are valuable antagonists of endothelin.
(§2) The following cultured cells were used in binding experiments: rabbit renal artery vascular smooth muscle cells (ERBA-A), Ltk-cells expressing recombinant human ETA R (HERBA-A), and CHO-K1 cells expressing recombinant human ETB R (HERBA-B).
(§3) Membranes were prepared from cultured cells by lysing cells in cold lysis buffer (5 mM HEPES, 2 mM EDTA, pH 7.4) and homogenizing with a Dounce "A" homogenizer. The homogenate was centrifuged at 30,000×g for 20 minutes at 4° C. Membrane pellets were suspended in cold buffer containing 20 mM Tris, 2 mM EDTA, 200 μM Pefabloc, 10 μM phosphoramidon, 10 μM leupeptin, 1 μM pepstatin at pH 7.4 and frozen at -80° C. until use. Membranes were thawed and homogenized with a Brinkmann Polytron then diluted in tissue buffer containing 20 mM Tris, 2 mM EDTA, 200 μM Pefabloc and 100 μM bacitracin (pH 7.4). Radioligand and competing ligands were prepared in binding buffer containing 20 mMTris, 2 mM EDTA, and 0.1% BSA.
(§4) Competing binding assays were initiatedby combining membranes, [125I]-ET-1 (40 pM) and the competing ligand in a final volume of 250 μL and incubating for 2 hours at 37° C. The assay was terminated by filtration over Whatman GF/B filters which were presoaked with 50 mM Tris, pH 7.4 containing 0.2% BSA and 100 μM bacitracin. Nonspecific binding was defined as binding in the presence of 100 nMET-1.

[3] = system: rat cerebellum (ETB); experiment: inhibition of ET-1 stimulated arachidonic acid release (AAR-B); format: cell-based; settings: ET-1 (0.3 nM) stimulated [3H]arachidonic acid release, 30 minutes
Source text: as §1

[4] = target: T3, rabbit renal artery vascular smooth muscle cells (ETA) (Oryctolagus cuniculus, UniProt A5A8K3); experiment: [125I]-ET-1 radioligand binding, rabbit renal artery vascular smooth muscle cells (ERBA-A); settings: [125I]-ET-1 (40 pM), 2 hours at 37° C.
T3 construct: endogenous in cells; host or cells: cultured rabbit renal artery vascular smooth muscle cells (membranes)
T3 sequence (A5A8K3 21-427): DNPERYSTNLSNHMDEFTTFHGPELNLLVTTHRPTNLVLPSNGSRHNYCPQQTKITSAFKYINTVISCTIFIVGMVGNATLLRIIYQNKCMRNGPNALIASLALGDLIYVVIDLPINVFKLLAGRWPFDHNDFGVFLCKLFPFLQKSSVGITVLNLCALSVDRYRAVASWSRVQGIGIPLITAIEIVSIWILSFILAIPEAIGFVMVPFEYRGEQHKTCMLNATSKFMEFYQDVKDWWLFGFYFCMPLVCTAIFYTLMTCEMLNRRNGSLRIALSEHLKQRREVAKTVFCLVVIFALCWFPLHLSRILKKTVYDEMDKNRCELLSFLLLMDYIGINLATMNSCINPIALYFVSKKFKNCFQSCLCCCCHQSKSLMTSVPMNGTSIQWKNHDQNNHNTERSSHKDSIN
Description: as §1, §2, §3, §4

[5] = system: ETA; settings: in vivo; cited from earlier work
[6] = system: ET receptor; settings: allergic sheep; cited from earlier work
[7] = system: ETA; settings: mouse model of endotoxic shock; cited from earlier work
[8] = system: endothelin receptor; settings: rats; cited from earlier work
[9] = system: endothelin receptor; settings: rats; cited from earlier work; remark: listed apart in the source
[10] = system: ETA /ETB receptor; settings: in vivo; cited from earlier work
[11] = system: ETB; settings: isolated, endothelium-intact porcine pulmonary arteries; cited from earlier work

IC50 [1] [µM]	IC50 [2] [µM]	IC50 [4] [µM]	Compound	other results
2	3.4		COc1cccc(CC(NC(=O)C(c2ccccc2)c2ccccc2)C(=O)O)c1OCc1ccccc1 (racemic) [Example 3, (R,S)-N-(Diphenylacetyl)-3-methoxy-2-(phenylmethoxy)-phenylalanine]	IC50 [3]: 10 µM
1	3.4	16	COc1cccc(CC(NC(=O)C(c2ccccc2)c2ccccc2)C(=O)O)c1OCCc1ccccc1 (racemic) [Example 4, (R,S)-2-Diphenylacetylamino-3-[3-methoxy-2-(2-phenyl-ethoxy)phenyl]propionic acid]	IC50 [3]: 6.1 µM
6.8		13	COc1cccc(CC(NC(=O)N(c2ccccc2)c2ccccc2)C(=O)O)c1OCc1ccccc1 (racemic) [Example 5, (R,S)-3-(2Benzyloxy-3-methoxyphenyl)-2-(3,3-diphenyl-ureido) propionic acid]	
9.4	9.3		COc1cccc(CC(NC(=O)C(c2ccccc2)c2ccccc2)C(=O)O)c1OCCCc1ccccc1 (racemic) [Example 7, (R,S)-Diphenylacetylamino-3-[3-methoxy-2-(3-phenyl-propoxy)phenyl]propionicacid]	
	> 25	17	COc1cccc(CC(NC(=O)C(c2ccccc2)c2ccccc2)C(=O)O)c1Oc1ccc([N+](=O)[O-])cc1 (racemic) [Example 8, (R,S)-2-Diphenylacetylamino-3-[3-method-2-(4-nitro-phenol)phenyl]propionicacid]	
2.2		> 25	COc1cccc(CC(NC(=O)C(Cc2cccc3ccccc23)Cc2cccc3ccccc23)C(=O)O)c1OCc1ccccc1 (racemic) [Example 9, (R,S)-3-(2-Benzyloxy-3-methoxyphenyl)-2-(3-naphthalen-1-yl-2-naphthalen-1-ylmethylpropionylamino)propionic acid]	
2.2		23	COc1cccc(CC(NC(=O)C(c2ccccc2)C2CCCC2)C(=O)O)c1OCc1ccccc1 (racemic) [Example 10, (R,S; R,S)-3-(2-Benzyloxy-3-methoxyphenyl)-2-(2-cyclopentyl-2-phenyl-acetylamino)propionic acid]	
23		> 25	O=C(O)C(Cc1ccccc1OCc1ccccc1)NC(=O)C(c1ccccc1)c1ccccc1 (racemic) [Example 14, (R,S)-3-(2-Benzyloxyphenyl)-2-diphenylacetylamino-propionic acid]	
9.7		7.1	COc1cccc(CC(NCC(c2ccccc2)c2ccccc2)C(=O)O)c1OCc1ccccc1 (racemic) [Example 16, (R,S)-3-(2-Benzyloxy-3-methoxyphenyl)-2-(2,2-diphenyl-ethylamino)propionic acid]	
12	27		COc1ccc(C(c2ccc3c(c2)OCO3)C(NC(=O)C(c2ccccc2)c2ccccc2)C(=O)O)cc1OCc1ccccc1 (racemic) [Example 23, (R,S: R,S)-3-Benzo[1,3]dioxol-5-yl-3-(3-benzyloxy-4-methoxyphenyl)-2-diphenyl-acetylaminopropionic acid]	
3	1.8		COc1cccc(SC(c2cccc(OC)c2)C(NC(=O)C(c2ccccc2)c2ccccc2)C(=O)O)c1 (racemic) [Example 35, (R,S; R,S)-2-Diphenylacetylamino-3-(3-methoxyphenyl)-3-(3-methoxyphenyl-sulfanyl)propionic acid]	
13	1.3		O=C(NC(C(=O)O)C(c1ccc2c(c1)OCO2)c1ccc2c(c1)OCO2)c1ccc2c(c1)OCO2 (racemic) [Example 38, (R,S)-2-[(Benzo[1,3]dioxole-5-carbonyl)-amino]-3,3-bis-benzo [1,3]dioxol-5-yl-propionic acid]	
16	4		CC(C)c1ccc(S(=O)(=O)NC(C(=O)O)C(c2ccc3c(c2)OCO3)c2ccc3c(c2)OCO3)cc1 (racemic) [Example 40, (R,S)-3,3-Bis-benzo[1,3]dioxol-5-yl-2-(4-isopropyl-benzenesulfonylamino)-propionic acid]	
			CC(C)C[C@@H]1NC(=O)[C@@H](C(C)C)NC(=O)[C@@H]2CCCN2C(=O)[C@@H](CC(=O)O)NC(=O)[C@@H](Cc2c[nH]c3ccccc23)NC1=O [BQ-123] (cyclo(L[dW][dD]P[dV]))	early cerebral vasospasm following subarachnoid hemorrhage [5]: prevent early cerebral vasospasm; ET-1 induced bronchoconstriction and tracheal smooth muscle contraction [6]: block; survival rate [7]: significantly increased
2.5	1.3		O=C(NC(C(=O)O)C(c1ccc2c(c1)OCO2)c1ccc2c(c1)OCO2)C(c1ccccc1)c1ccccc1 (centres unmarked) [Example 21, 3,3 -Bis-benzo[1,3]dioxol-5-yl-2-diphenylacetylamino-propionic acid]	
			COc1cccc(Oc2c(NS(=O)(=O)c3ccc(C(C)(C)C)cc3)ncnc2OCCO)c1 [RO 46-2005]	efficacy in model of subarachnoid hemorrhage [8]: effective; efficacy in model of acute renal ischemia [9]: effective
			CCCOc1ccc2c(c1)[C@@H](c1ccc(OC)cc1OCC(=O)O)[C@H](C(=O)O)[C@H]2c1ccc2c(c1)OCO2 [SB 209670]	neointimal formation after angioplasty [10]: reduced neointimal formation
			ET[1,3,11,15-Ala]	vasorelaxation [11]: caused vasorelaxation

— US5658943A, “Phenylalanine derivatives as endothelin antagonists” (Warner-Lambert Company, priority 1995, dated 1997)
